The text below walks through data of patent publication US8796268B2, “Heteroaryls and uses thereof” (Millennium Pharmaceuticals, Inc., priority 2010, dated 2014).

Experiment [1] deals with T1, Human PI3K alpha (Homo sapiens, UniProt P42336).
T1 construct: His (N); host or cells: SF9 insect cells (baculovirus)
The experiment in a line: Human PI3K alpha enzyme assay (HTRF). Conditions: read-out: PI3Kalpha IC50. The experiment is classed as biochemical. From the text:
(§1) The catalytic subunits of PI3Ks are cloned into either pDEST8(p110 alpha) or pDEST10(p110beta, p110delta, and p110gamma) as N-terminal His tagged fusion proteins using the Gateway system (Invitrogen, catalog#11804-010 for pDEST8 and 11806-015 for pDEST10). The sequences are verified before recombinant protein expression using the Baculovirus Expression System with Gateway® Technology. The accession numbers for the subunits are as follows: • p110 alpha (GB:U79143) • p110beta (GB: S67334) • p110delta (GB: U86453) • p110gamma (GB: X83368) • The regulatory subunits of PI3Ks are cloned into pDEST8 as un-tagged protein using the Gateway system (Catalog#11804-010). The sequences are verified before recombinant protein expression using the Baculovirus Expression System with Gateway® Technology. The accession numbers for the subunits are as following: • p85 alpha (GB: BC030815) • p101(GB: AB028925) • VPS34 (accession number GB:BC033004) is cloned into pDEST20—Thombin as N-terminal GST tagged fusion proteins using the Gateway system (Invitrogen, catalog#11804-013). The sequences are verified before recombinant protein expression using the Baculovirus Expression System with Gateway® Technology.
(§2) For expression of the p110 complexes, the p85 (MOI of 4) is co-infected with p110 alpha, beta, and delta respectively (1MOI) in SF9 cells and harvested at 60 hours post co-infection. P110 gamma was infected at 1 MOI and harvested at 60 hours post infection.
(§3) For purification, PI3Ks are purified by Ni-NTA Agarose (Qiagen #30250) followed by Mono Q 10/100 GL (Ge Healthcare #17-5167-01). VPS34 is purified by Glutathione Sepharose 4 Fast Flow (GE Healthcare #17-5132-03) followed by HiTrap Q (GE Healthcare #17-1153-01).
1) Human PI3K alpha enzyme assay method
(§4) 0.5 uL compounds in DMSO are added to wells of a 384 well microtitre plate (Corning 3575). At room temperature: 10 ul PI3K reaction buffer (50 mM Hepes, 5 mM DTT, 150 mM NaCl, 10 mM beta-glycerophosphate, 10 mM MgCl2, 0.25 mM sodium cholate and 0.001% CHAPS, pH 7.00) containing ATP (25 uM, Promega) is added followed immediately by 10 ul PI3K reaction buffer containing di-C8 P1(4,5)P2 (3.5 uM, CellSignals) and PI3Kalpha (0.4875 nM, Millennium Protein Sciences Group) and the mixture is incubated with shaking at room temperature for 30 minutes. Then 5 ul PI3K stop mix (50 mM Hepes, 5 mM DTT, 150 mM NaCl, 0.01% Tween-20, 15 mM EDTA and 25 nM biotin-PI(3,4,5)P3 (Echelon) is added to quench the reaction followed immediately by addition of 5 ul HTRF detection mix (50 mM Hepes, 5 mM DTT, 150 mM NaCl, 0.01% Tween-20, 40 mM KF, 1.0 nM GST:GRP-1 PH domain (Millennium Protein Sciences Group), 15 nM Streptavidin-XL (CisBio) and 0.375 nM anti-GST Eu++ antibody (CisBio) at pH 7.00). The plates are then incubated for 1 hour at room temperature with shaking and then read on a BMG PheraStar Plus reader.
(§5) For the assay methods described above, test compound percent inhibition, at various concentrations, is calculated relative to control (DMSO and EDTA) treated samples. Compound concentration versus percent inhibition curves are fitted to generate IC50 values. One skilled in the art will appreciate that the values generated either as percentage inhibition at a single concentration or IC50 values are subject to experimental variation.

Experiment [2] deals with T2, Human PI3K beta (Homo sapiens, UniProt P42338).
T2 construct: His (N); host or cells: SF9 insect cells (baculovirus)
The experiment can be described thus: Human PI3K beta enzyme assay (HTRF). It counts as biochemical. Conditions: read-out: PI3 Kbeta IC50.
Excerpt: as §1, §2, §3, §4
2) Human PI3K beta, delta and gamma isoforms are tested using the procedure described for PI3K alpha above but with the following changes: PI3K beta (5.25 nM), PI3K delta (0.75 nM) and PI3K gamma (5 nM). All isoforms supplied by Millennium Protein Science Group.
as §5
(TR-FRET usually uses a lanthanide donor and a delayed reading to cut background.)

Usually IC50 stands for the point on the concentration scale where inhibition reaches its midpoint.

T1 sequence (P42336 whole entry): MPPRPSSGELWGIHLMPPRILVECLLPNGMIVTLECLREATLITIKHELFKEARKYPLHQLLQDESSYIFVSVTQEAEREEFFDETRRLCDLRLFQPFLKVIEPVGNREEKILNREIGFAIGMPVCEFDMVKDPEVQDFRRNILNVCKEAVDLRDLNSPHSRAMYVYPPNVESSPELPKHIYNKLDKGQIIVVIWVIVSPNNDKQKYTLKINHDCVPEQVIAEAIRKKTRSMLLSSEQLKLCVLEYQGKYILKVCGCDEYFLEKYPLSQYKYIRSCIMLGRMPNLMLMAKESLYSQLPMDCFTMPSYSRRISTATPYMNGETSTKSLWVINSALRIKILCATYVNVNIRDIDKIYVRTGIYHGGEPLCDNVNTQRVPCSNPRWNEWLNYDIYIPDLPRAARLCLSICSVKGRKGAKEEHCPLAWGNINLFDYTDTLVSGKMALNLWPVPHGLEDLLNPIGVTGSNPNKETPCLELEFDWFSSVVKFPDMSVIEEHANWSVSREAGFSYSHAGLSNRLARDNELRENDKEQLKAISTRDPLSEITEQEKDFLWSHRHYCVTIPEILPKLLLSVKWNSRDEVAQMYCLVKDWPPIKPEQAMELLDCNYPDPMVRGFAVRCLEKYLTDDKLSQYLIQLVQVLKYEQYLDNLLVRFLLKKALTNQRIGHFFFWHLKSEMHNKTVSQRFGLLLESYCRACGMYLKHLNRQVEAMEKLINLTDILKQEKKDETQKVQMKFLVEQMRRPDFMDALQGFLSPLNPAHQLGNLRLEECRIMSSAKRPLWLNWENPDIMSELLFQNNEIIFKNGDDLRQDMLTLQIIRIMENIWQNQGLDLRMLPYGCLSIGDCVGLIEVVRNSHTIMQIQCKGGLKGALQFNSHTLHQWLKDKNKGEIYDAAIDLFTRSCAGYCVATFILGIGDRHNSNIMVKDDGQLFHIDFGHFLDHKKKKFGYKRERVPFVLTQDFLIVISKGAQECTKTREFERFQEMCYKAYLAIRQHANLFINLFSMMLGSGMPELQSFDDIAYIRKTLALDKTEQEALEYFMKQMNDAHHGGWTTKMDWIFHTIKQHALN
T1 sequence (P27986 whole entry partner): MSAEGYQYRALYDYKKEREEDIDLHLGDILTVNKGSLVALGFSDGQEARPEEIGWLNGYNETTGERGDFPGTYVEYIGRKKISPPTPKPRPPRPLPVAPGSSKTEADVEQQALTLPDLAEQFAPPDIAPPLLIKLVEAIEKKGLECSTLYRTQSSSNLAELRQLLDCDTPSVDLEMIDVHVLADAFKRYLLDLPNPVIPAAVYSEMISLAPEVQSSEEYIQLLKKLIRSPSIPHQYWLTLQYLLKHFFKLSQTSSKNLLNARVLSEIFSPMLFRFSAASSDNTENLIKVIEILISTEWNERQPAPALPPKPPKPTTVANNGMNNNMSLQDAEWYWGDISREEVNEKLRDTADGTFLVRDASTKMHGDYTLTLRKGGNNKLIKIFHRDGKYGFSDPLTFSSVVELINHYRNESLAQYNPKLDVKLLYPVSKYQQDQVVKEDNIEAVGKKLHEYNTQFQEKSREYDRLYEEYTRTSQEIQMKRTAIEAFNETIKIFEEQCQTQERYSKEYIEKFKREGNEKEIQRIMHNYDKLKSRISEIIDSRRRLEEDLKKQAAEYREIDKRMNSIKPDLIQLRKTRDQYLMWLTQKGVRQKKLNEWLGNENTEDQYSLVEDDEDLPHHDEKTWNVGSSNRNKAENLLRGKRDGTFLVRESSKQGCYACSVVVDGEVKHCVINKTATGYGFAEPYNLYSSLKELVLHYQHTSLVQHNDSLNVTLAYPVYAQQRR
T2 sequence (P42338 whole entry): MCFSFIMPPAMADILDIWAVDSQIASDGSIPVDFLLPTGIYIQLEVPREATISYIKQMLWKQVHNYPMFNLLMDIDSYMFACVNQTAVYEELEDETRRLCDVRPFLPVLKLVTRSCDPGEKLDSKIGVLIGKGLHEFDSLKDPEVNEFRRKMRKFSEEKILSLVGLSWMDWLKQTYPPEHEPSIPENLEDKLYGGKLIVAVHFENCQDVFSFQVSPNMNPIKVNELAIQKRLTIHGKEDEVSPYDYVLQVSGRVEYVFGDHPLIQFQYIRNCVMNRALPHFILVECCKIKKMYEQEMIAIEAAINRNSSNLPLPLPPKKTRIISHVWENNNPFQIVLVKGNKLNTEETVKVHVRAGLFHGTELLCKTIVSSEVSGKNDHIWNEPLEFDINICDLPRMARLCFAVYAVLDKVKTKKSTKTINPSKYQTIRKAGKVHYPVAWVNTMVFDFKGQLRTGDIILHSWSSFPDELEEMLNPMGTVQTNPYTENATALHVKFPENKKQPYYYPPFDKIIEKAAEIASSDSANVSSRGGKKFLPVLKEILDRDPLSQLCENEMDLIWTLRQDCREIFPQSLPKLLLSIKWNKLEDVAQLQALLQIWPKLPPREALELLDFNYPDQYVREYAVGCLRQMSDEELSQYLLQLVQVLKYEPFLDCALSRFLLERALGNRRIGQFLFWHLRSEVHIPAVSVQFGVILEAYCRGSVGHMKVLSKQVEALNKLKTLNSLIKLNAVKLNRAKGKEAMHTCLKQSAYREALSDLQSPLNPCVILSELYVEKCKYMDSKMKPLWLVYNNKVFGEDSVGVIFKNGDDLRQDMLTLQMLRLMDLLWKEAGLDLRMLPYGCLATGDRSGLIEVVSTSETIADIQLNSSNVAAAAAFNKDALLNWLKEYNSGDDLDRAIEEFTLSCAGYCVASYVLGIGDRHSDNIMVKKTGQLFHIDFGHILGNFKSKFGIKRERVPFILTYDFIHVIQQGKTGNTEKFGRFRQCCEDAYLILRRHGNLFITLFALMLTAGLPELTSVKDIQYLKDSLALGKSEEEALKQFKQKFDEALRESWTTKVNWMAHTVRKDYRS
T2 sequence (P27986 whole entry partner): as the sequence (P27986 whole entry partner) above

For `OC(c1ccc(Cl)cc1)c1cc(-c2ncncc2F)sc1-c1nnc[nH]1` (stereo not drawn) [Compound 68], the IC50 in experiment [1] was above 1000 nM; in experiment [2] it was 100 to 1000 nM.

In the case of `OC(c1ccc(Cl)cc1)c1cc(-c2ccncc2F)sc1-c1nnc[nH]1` (stereo not drawn) [Compound 16], the values for the IC50 in experiment [1] and in experiment [2] were above 1000 nM and below 100 nM, respectively.

Turning to `COc1ccc(CNCc2ccn3nc(C)c(-c4nc(Cc5ccc(Cl)cc5)c(-c5nnc[nH]5)s4)c3c2)c(OC)c1` [Compound 20], the IC50 in experiment [1] was 100 to 1000 nM; in experiment [2], below 100 nM.

In the case of `Cc1cc(-c2nc(Cc3ccc(Cl)cc3)c(-c3nc[nH]n3)s2)ccn1` [Compound 18, 4-(4-Chlorobenzyl)-2-(2-methylpyridin-4-yl)-5-(4H-1,2,4-triazol-3-yl)thiazole], the IC50 in experiment [1] and in experiment [2] was above 1000 nM each time.

Take `Cc1nn2ccc(CN(CCN)Cc3ccncc3)cc2c1-c1nc(Cc2ccc(Cl)cc2)c(-c2nnc[nH]2)s1` [Compound 31]: the values for the IC50 in experiment [1] and in experiment [2] were 100 to 1000 nM and below 100 nM, respectively.

As to `CC(C)NC(c1ccc(Cl)cc1)c1cc(-c2ccncc2)sc1-c1nnc[nH]1` (stereo not drawn) [Compound 33], the figures for the IC50 in experiment [1] and in experiment [2] were above 1000 nM and 100 to 1000 nM, respectively.

Turning to `OC(c1ccc(Cl)cc1)c1cc(-c2ccncc2)sc1-c1nnc[nH]1` (stereo not drawn) [Compound 52], the IC50 in experiment [1] was above 1000 nM; in experiment [2], below 100 nM.

For `CC(=O)Nc1cc(-c2nc(Cc3ccc(C)cc3)c(-c3ncc[nH]3)s2)ccn1` [Compound 24], the half-maximal inhibitory concentration (IC50) in experiment [1] is 100 to 1000 nM; in experiment [2], above 1000 nM.

On to `O[C@@H](c1ccc(Cl)cc1)c1cc(-c2ccnnc2)sc1-c1nnc[nH]1` [Compound 55], for which the IC50 in experiment [1] and in experiment [2] was above 1000 nM in each case.

For `N#Cc1cc(-c2cc([C@@H](O)c3ccc(Cl)cc3)c(-c3nnc[nH]3)s2)ccn1` [Compound 48], the IC50 in experiment [1] and in experiment [2] was 100 to 1000 nM each time.

With `Clc1ccc(Cc2nc(-c3ccncc3)sc2-c2ncc[nH]2)cc1` [Compound 15, 4-(4-chlorobenzyl)-5-(1H-imidazol-2-yl)-2-(pyridin-4-yl)thiazole], the IC50 in experiment [1] was above 1000 nM; in experiment [2], 100 to 1000 nM.

`OC(c1ccc(Cl)cc1)c1cc(-c2ccnc3ccccc23)sc1-c1nnc[nH]1` (stereo not drawn) [Compound 42]: the IC50 in experiment [1] and in experiment [2] was 100 to 1000 nM in each case.

In the case of `Cc1cc(-c2cc(C(O)c3ccc(Cl)cc3)c(-c3nnc[nH]3)s2)ccn1` (stereo not drawn) [Compound 11], the IC50 in experiment [1] was above 1000 nM; in experiment [2], below 100 nM.

Turning to `COc1cc(-c2cc(C(O)c3ccc(Cl)cc3)c(-c3nnc[nH]3)s2)ccn1` (stereo not drawn) [Compound 17], the values for the IC50 in experiment [1] and in experiment [2] were above 1000 nM and 100 to 1000 nM, respectively.

In the case of `Cc1nn2ccc(CNCCN)cc2c1-c1nc(Cc2ccc(Cl)cc2)c(-c2nnc[nH]2)s1` [Compound 54], the IC50 in experiment [1] and in experiment [2] was 100 to 1000 nM throughout.

As to `CC(=O)Nc1cc(-c2nc(Cc3ccc(Cl)cc3)c(-c3ncn[nH]3)s2)ccn1` [Compound 56, N-{4-[4-(4-chlorobenzyl)-5-(4H-1,2,4-triazol-3-yl)-1,3-thiazol-2-yl]pyridin-2-yl}acetamide], the IC50 in experiment [1] and in experiment [2] was 100 to 1000 nM each time.

As to `Clc1ccc(Cc2cc(-c3ccncc3)sc2-c2nnc[nH]2)cc1` [Compound 5, 4-[4-(4-chlorobenzyl)-5-(4H-1,2,4-triazol-3-yl)-2-thienyl]pyridine], the IC50 was above 1000 nM in experiment [1] and below 100 nM in experiment [2].

In the case of `Clc1ccc(C(c2cc(-c3ccncc3)sc2-c2nnc[nH]2)N2CCC2)cc1` (stereo not drawn) [Compound 51], the IC50 is above 1000 nM in experiment [1] and below 100 nM in experiment [2].

Turning to `OC(c1ccc(Cl)cc1)c1cc(-c2ccnc3[nH]ccc23)sc1-c1nnc[nH]1` (stereo not drawn) [Compound 10], the IC50 in experiment [1] and in experiment [2] was 100 to 1000 nM throughout.

With `c1ccc2cc(Cc3nc(-c4ccncc4)sc3-c3nnc[nH]3)ccc2c1` [Compound 87], the IC50 was above 1000 nM in experiment [1] and below 100 nM in experiment [2].

Consider `Nc1cc(-c2nc(Cc3ccc(Cl)cc3)c(-c3ncn[nH]3)s2)ccn1` [Compound 27], for which the figures for the IC50 in experiment [1] and in experiment [2] were above 1000 nM and 100 to 1000 nM, respectively.
